Structures are written as SMILES.

The first assay deals with T1, vanilloid receptor 1 (VR1/TRPV1 receptor) (Homo sapiens, UniProt Q8NER1).
T1 construct: expressed in transfected cells; host or cells: CHO K1 cells (ECACC), stably transfected
T1 sequence (Q8NER1 whole entry): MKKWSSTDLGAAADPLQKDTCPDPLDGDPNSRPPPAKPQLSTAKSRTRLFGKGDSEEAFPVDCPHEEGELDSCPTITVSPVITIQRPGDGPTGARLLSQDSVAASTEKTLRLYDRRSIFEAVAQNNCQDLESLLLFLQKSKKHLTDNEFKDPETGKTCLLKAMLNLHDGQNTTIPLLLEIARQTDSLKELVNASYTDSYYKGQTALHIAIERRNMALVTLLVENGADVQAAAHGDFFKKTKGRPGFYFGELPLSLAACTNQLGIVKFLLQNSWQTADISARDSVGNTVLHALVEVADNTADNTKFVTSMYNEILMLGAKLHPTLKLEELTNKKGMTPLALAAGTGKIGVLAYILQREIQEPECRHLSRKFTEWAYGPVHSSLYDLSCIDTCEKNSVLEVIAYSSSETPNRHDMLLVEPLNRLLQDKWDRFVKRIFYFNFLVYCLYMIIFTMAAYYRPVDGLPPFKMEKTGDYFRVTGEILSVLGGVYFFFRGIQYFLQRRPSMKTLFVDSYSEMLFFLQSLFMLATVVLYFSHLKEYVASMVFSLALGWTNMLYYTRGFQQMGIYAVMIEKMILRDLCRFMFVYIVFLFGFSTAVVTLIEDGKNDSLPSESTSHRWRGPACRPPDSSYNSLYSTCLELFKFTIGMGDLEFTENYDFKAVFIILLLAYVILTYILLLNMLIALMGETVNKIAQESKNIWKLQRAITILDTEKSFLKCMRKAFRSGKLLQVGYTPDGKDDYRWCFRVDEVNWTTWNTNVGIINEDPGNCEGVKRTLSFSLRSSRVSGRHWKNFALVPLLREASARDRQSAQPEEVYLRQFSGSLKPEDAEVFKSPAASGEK
Kind of assay: Functional testing on vanilloid receptor 1: FLIPR Ca2+ influx assay against capsaicin (Cap) in transfected CHO K1 cells (pharmacological method II). As to Ki: 100 nM capsaicin. It counts as cell-based. Also on record: key to (f) Ki (human being) [nM] Cap: agonist classification: AG = agonist. The note with it: @ 1µM; human VR1 in CHO K1 cells; capsaicin; relative to maximum inhibition with 10 µM capsazepine; read-out: inhibition (as a percentage), printed in column (f) Ki (human being) [nM] Cap.
Source text: […]
One may read the inhibition as the change of the read-out against control, counted positive when it falls. Turning to `CCOc1cc(C)cc(-n2nc(C(F)(F)F)cc2CNC(=O)Nc2ccc(COCCO)c(F)c2)c1` [A135, 1-[[2-(3-Ethoxy-5-methyl-phenyl)-5-(trifluoromethyl)-2H-pyrazol-3-yl]-methyl]-3-[3-fluoro-4-(2-hydroxy-ethoxy-methyl)-phenyl]-urea], the inhibition at 1 µM was 15%.

Staying with this assay, now noted: @ 5µM; human VR1 in CHO K1 cells; capsaicin; relative to maximum inhibition with 10 µM capsazepine; read-out: inhibition (as a percentage), printed in column (f) Ki (human being) [nM] Cap.
On to `O=C(NCc1cc(C(F)(F)F)nn1-c1cccc(Cl)c1)Nc1ccc(C(O)(CO)CO)cc1` [A158, 1-[[2-(3-Chlorophenyl)-5-(trifluoromethyl)-2H-pyrazol-3-yl]-methyl]-3-[4-[1,2-dihydroxy-1-(hydroxymethyl)-ethyl]-phenyl]-urea], for which the inhibition at 5 µM came out at 13%.
The same measure, in the same setting: next, `CC(C)(C)c1cc(CNC(=O)Nc2ccc(C(C)(CO)CO)cc2)n(-c2cccc(Cl)c2)n1` [A157, 1-[[5-tert-Butyl-2-(3-chlorophenyl)-2H-pyrazol-3-yl]-methyl]-3-[4-[2-hydroxy-1-(hydroxymethyl)-1-methyl-ethyl]-phenyl]-urea]: 35%.

The same assay, now with this note: human VR1 in CHO K1 cells; AG printed instead of a Ki.
As for `COc1ccc(NC(=O)NCc2cc(C(F)(F)F)nn2-c2cccc(Cl)c2)cc1O` [A16, 1-[[2-(3-Chlorophenyl)-5-(trifluoromethyl)-2H-pyrazol-3-yl]-methyl]-3-(3-hydroxy-4-methoxy-phenyl)-urea], the “(f) Ki (human being) [nM] Cap: agonist classification” value is recorded as “AG”.

The same assay, now with this note: read-out: (f) Ki (human being) [nM] Cap.
As a reminder, the Ki is the dissociation constant of the complex between target and ligand, obtained from inhibition or displacement. In the case of `C[C@H](C(=O)NCc1cc(C(F)(F)F)nn1-c1cccc(Cl)c1)c1ccc(COCCO)c(F)c1` [A119, (2S)-N-[[2-(3-Chlorophenyl)-5-(trifluoromethyl)-2H-pyrazol-3-yl]-methyl]-2-[3-fluoro-4-(2-hydroxy-ethoxy-methyl)-phenyl]-propionamide], the Ki is 57 nM.
On to `COc1c(C)cccc1-n1nc(C(F)(F)F)cc1CNC(=O)Nc1ccc(CO)c(F)c1` [A94, 1-[3-Fluoro-4-(hydroxymethyl)-phenyl]-3-[[2-(2-methoxy-3-methyl-phenyl)-5-(trifluoromethyl)-2H-pyrazol-3-yl]-methyl]-urea], for which the Ki was found to be 30 nM.
The same measure, in the same setting: next, `C[C@H](C(=O)NCc1cc(C(F)(F)F)nn1-c1cccc(Cl)c1)c1ccc(CO)c(F)c1` [A34, (2S)-N-[[2-(3-Chlorophenyl)-5-(trifluoromethyl)-2H-pyrazol-3-yl]-methyl]-2-[3-fluoro-4-(hydroxymethyl)-phenyl]-propionamide]: 37 nM; `Cc1ccc(C)c(-n2nc(C(F)(F)F)cc2CNC(=O)Nc2ccc(CO)c(F)c2)c1` [A74, 1-[[2-(2,5-Dimethyl-phenyl)-5-(trifluoromethyl)-2H-pyrazol-3-yl]-methyl]-3-[3-fluoro-4-(hydroxymethyl)-phenyl]-urea]: 44 nM; `CC(C)c1cccc(-n2nc(C(F)(F)F)cc2CNC(=O)C(C)c2ccc(COCCO)c(F)c2)c1` (centres unmarked) [A115, 2-[3-Fluoro-4-(2-hydroxy-ethoxy-methyl)-phenyl]-N-[[2-(3-isopropyl-phenyl)-5-(trifluoromethyl)-2H-pyrazol-3-yl]-methyl]-propionamide]: 3 nM.
Turning to `O=C(NCc1cc(C(F)(F)F)nn1-c1cccc(Cl)c1)Nc1ccc(CO)cc1` [A28, 1-[[2-(3-Chlorophenyl)-5-(trifluoromethyl)-2H-pyrazol-3-yl]-methyl]-3-[4-(hydroxymethyl)-phenyl]-urea], the Ki was 22 nM.
Same read-out and setting: the value for `O=C(NCc1cc(C(F)(F)F)nn1-c1cccc(F)c1)Nc1ccc(CO)c(F)c1` [A62, 1-[3-Fluoro-4-(hydroxymethyl)-phenyl]-3-[[2-(3-fluorophenyl)-5-(trifluoromethyl)-2H-pyrazol-3-yl]-methyl]-urea] was 30 nM.
The same measure, in the same setting: the value for `O=C(NCc1cc(C(F)(F)F)nn1-c1cccc(Cl)c1)Nc1cc(F)c(O)c(F)c1` [A12, 1-[[2-(3-Chlorophenyl)-5-(trifluoromethyl)-2H-pyrazol-3-yl]-methyl]-3-(3,5-difluoro-4-hydroxy-phenyl)-urea] was 8 nM; that for `Cc1ccc(-n2nc(C(F)(F)F)cc2CNC(=O)Nc2ccc(CO)c(F)c2)cc1C` [A75, 1-[[2-(3,4-Dimethyl-phenyl)-5-(trifluoromethyl)-2H-pyrazol-3-yl]-methyl]-3-[3-fluoro-4-(hydroxymethyl)-phenyl]-urea] was 19 nM; that for `CC(C)(C)c1cc(CNC(=O)Nc2ccc(CO)c(F)c2)n(-c2cccc(F)c2)n1` [A54, 1-[[5-tert-Butyl-2-(3-fluorophenyl)-2H-pyrazol-3-yl]-methyl]-3-[3-fluoro-4-(hydroxymethyl)-phenyl]-urea] was 6 nM.
Consider `CC(C)(C)c1cc(CNC(=O)Cc2ccc(CO)c(F)c2)n(-c2cccc(Cl)c2)n1` [A29, N-[[5-tert-Butyl-2-(3-chlorophenyl)-2H-pyrazol-3-yl]-methyl]-2-[3-fluoro-4-(hydroxymethyl)-phenyl]-acetamide], for which the Ki was found to be 1 nM.
Consider `CC(C(=O)NCc1cc(C(F)(F)F)nn1-c1cc(F)cc(F)c1)c1ccc(COCCO)c(F)c1` (centres unmarked) [A126, N-[[2-(3,5-Difluoro-phenyl)-5-(trifluoromethyl)-2H-pyrazol-3-yl]-methyl]-2-[3-fluoro-4-(2-hydroxy-ethoxy-methyl)-phenyl]-propionamide], for which the inhibition constant (Ki) was 79 nM.
With `Cc1cc(-n2nc(C(F)(F)F)cc2CNC(=O)Nc2ccc(CO)c(F)c2)ccc1Cl` [A78, 1-[[2-(4-Chloro-3-methyl-phenyl)-5-(trifluoromethyl)-2H-pyrazol-3-yl]-methyl]-3-[3-fluoro-4-(hydroxymethyl)-phenyl]-urea], the Ki worked out at 11 nM.
Same read-out and setting: next, `O=C(NCc1cc(C(F)(F)F)nn1-c1cccc(Cl)c1)Nc1ccc(OCC(O)CO)cc1` (centres unmarked) [A23, 1-[[2-(3-Chlorophenyl)-5-(trifluoromethyl)-2H-pyrazol-3-yl]-methyl]-3-[4-(2,3-dihydroxy-propoxy)-phenyl]-urea]: 35 nM; `CCOc1ccc(C)cc1-n1nc(C(F)(F)F)cc1CNC(=O)Nc1ccc(CO)c(F)c1` [A88, 1-[[2-(2-Ethoxy-5-methyl-phenyl)-5-(trifluoromethyl)-2H-pyrazol-3-yl]-methyl]-3-[3-fluoro-4-(hydroxymethyl)-phenyl]-urea]: 86 nM.
Still for that read-out and setting: the value for `O=C(NCc1cc(C(F)(F)F)nn1-c1cccc(Cl)c1Cl)Nc1ccc(COCCO)c(F)c1` [A133, 1-[[2-(2,3-Dichloro-phenyl)-5-(trifluoromethyl)-2H-pyrazol-3-yl]-methyl]-3-[3-fluoro-4-(2-hydroxy-ethoxy-methyl)-phenyl]-urea] was 12 nM.
The same measure, in the same setting: the value for `CC(C)(C)c1cc(CNC(=O)Nc2ccc(COCCO)c(F)c2)n(-c2cccc(Cl)c2)n1` [A129, 1-[[5-tert-Butyl-2-(3-chlorophenyl)-2H-pyrazol-3-yl]-methyl]-3-[3-fluoro-4-(2-hydroxy-ethoxy-methyl)-phenyl]-urea] was 43 nM.
With `O=C(NCc1cc(C(F)(F)F)nn1-c1cccc(Cl)c1)Nc1ccc(OCC(O)CO)c(F)c1` (centres unmarked) [A25, 1-[[2-(3-Chlorophenyl)-5-(trifluoromethyl)-2H-pyrazol-3-yl]-methyl]-3-[4-(2,3-dihydroxy-propoxy)-3-fluoro-phenyl]-urea], the Ki is 65 nM.
With `COc1ccc(-n2nc(C(F)(F)F)cc2CNC(=O)Nc2ccc(CO)c(F)c2)cc1` [A68, 1-[3-Fluoro-4-(hydroxymethyl)-phenyl]-3-[[2-(4-methoxyphenyl)-5-(trifluoromethyl)-2H-pyrazol-3-yl]-methyl]-urea], the inhibition constant Ki worked out at 13 nM.

The values are drawn from EP2776398B1, “SUBSTITUTED PYRAZOLYL-BASED UREA DERIVATIVES AS VANILLOID RECEPTOR LIGANDS” (Medifron DBT Inc., priority 2011, dated 2013).
